Like-named read-outs stand apart in the source and are kept apart here.
Tests used:
Assay type in all cases: cell-based
Conditions in all cases: 48 hours
IL-17FF = IL-17FF production by PHA-stimulated human PBMC (human IL-17F ELI-Pair)
Description: Analysis of Proliferation of and Cytokine Production by Human PBMC Stimulated with PHA
Peripheral blood mononuclear cells (PBMC) from healthy human donors were purified using Accuspin™ System-Histopaque-1077 (Sigma) according to the protocol recommended by the manufacturer. Purified PBMC were then washed twice with phosphate-buffered saline (PBS) and resuspended in RPMI1640 culture medium supplemented with 10% dialyzed heat inactivated fetal calf serum, 1.5 mM L-glutamine, 100 U penicillin/ml, and […] (all from PAN Biotech, Aidenbach, Germany). For stimulation, PBMC were seeded at 1×10^5 cells/well, activated with 2 μg/ml phytohaemagglutinin (PHA, Sigma) and incubated with the test compounds for 48 hours. IL-17A, IL-17F and INF-γ were then determined in the culture supernatant using a Luminex BioPlex system, following the manufacturer's instructions (BioRad, Munich, Germany). For screening, compounds were used at 10, 1, 0.1 and 0.01 μM. To determine the IC50, compounds were titrated semilogarithmically.
Cytokines were determined in the aforementioned culture supernatant using the following methods: IL-17AA/AF was measured using the Luminex BioPlex system (BioRad, Munich, Germany); IL-17AA using the human homodimer IL-17A ELISA Ready Set Go Kit from eBioscience (Frankfurt, Germany); IL-17FF using the human IL-17F ELI-Pair from Hölzel DiagnosticaGmBH (Köln, Germany); and IFN-γ using the OptEIA human IFN-g ELISA from BD Bioscience (Heidelberg, Germany), all following the manufacturer's instructions.

IFN-γ = IFN-γ production by PHA-stimulated human PBMC (OptEIA human IFN-g ELISA)
How it was run: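 Compounds are titrated semilogarithmically for IC50, or tested at 10, 1, 0.1 and 0.01 μM for screening, on healthy-donor PBMC activated with 2 μg/ml PHA. After 48 h, secreted cytokine is measured in supernatant.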

[1] = system: PBMC from healthy human donors; assay: T cell proliferation assay (PHA-stimulated human PBMC, BrdU ELISA)
How it was run: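 Healthy-donor PBMC isolated on Ficoll, seeded at 1×10⁵ cells/well in RPMI with 10% dialysed FCS, stimulated with 2 μg/ml PHA in presence of test compound. Proliferation read after 48 hours by BrdU-incorporation ELISA.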

[2] = human PBMC, 2 μg/ml PHA, read-out: B: IC50 (IL-17FF)
[3] = human PBMC, 2 μg/ml PHA, read-out: C: IC50 (IFNγ)
[4] = human PBMC, 2 μg/ml PHA, read-out: D: IC50 (Tcell proliferation)
[5] = PHA-stimulated human PBMC, column B, read-out: IC50 (IL-17FF)
[6] = PHA-stimulated human PBMC, column C, read-out: IC50 (IFNγ)
[7] = PHA-stimulated human PBMC, column D, read-out: IC50 (Tcell proliferation)

| Structure (SMILES) | IC50 (IL-17FF; [2]) [nM] | IC50 (IFN-γ; [3]) [nM] | IC50 (IL-17FF; [5]) [nM] | IC50 (IFN-γ; [6]) [nM] | IC50 [1, 4] [nM] | IC50 [1, 7] [nM] |
| --- | --- | --- | --- | --- | --- | --- |
| Fc1cccc(-n2ncc(-c3onc(-c4c(F)cccc4Cl)c3-c3nnn[nH]3)c2C(F)(F)F)c1 [Example 2, 3-(2-chloro-6-fluorophenyl)-5-(1-(3-fluorophenyl)-5-(trifluoromethyl)-1H-pyrazol-4-yl)-4-(1H-tetrazol-5-yl)isoxazole] | 1000 to 10000 | 1000 to 10000 | – | – | 1000 to 10000 | – |
| N#Cc1c(-c2c(F)cccc2Cl)noc1-c1cnn(-c2cccc(F)c2)c1C(F)(F)F [Example I-120, 3-(2-chloro-6-fluorophenyl)-5-(1-(3-fluorophenyl)-5-(trifluoromethyl)-1H-pyrazol-4-yl)isoxazole-4-carbonitrile] | – | – | 100 to 1000 | 100 to 1000 | – | 100 to 1000 |
| CCOC(=O)c1c(-c2c(F)cccc2Cl)noc1-c1cnn(CC2CCCO2)c1C(F)(F)F (stereo not drawn) [IB-96, ethyl 3-(2-chloro-6-fluorophenyl)-5-(1-((tetrahydrofuran-2-yl)methyl)-5-(trifluoromethyl)-1H-pyrazol-4-yl)isoxazole-4-carboxylate] | – | – | 10 to 100 | 10 to 100 | – | 10 to 100 |
| COC(=O)c1c(-c2ccccc2)noc1-c1cnn(-c2ccccc2F)c1C(F)(F)F [Example I-61, methyl 5-(1-(2-fluorophenyl)-5-(trifluoromethyl)-1H-pyrazol-4-yl)-3-phenylisoxazole-4-carboxylate] | – | – | 1000 to 10000 | 1000 to 10000 | – | 1000 to 10000 |
| CNC(=O)c1c(-c2c(F)cccc2Cl)noc1-c1cnn(-c2ccccn2)c1C(F)(F)F [IB-93, 3-(2-chloro-6-fluorophenyl)-N-methyl-5-(1-(pyridin-2-yl)-5-(trifluoromethyl)-1H-pyrazol-4-yl)isoxazole-4-carboxamide] | – | – | 100 to 1000 | 100 to 1000 | – | 1000 to 10000 |
| CCOC(=O)c1c(-c2c(F)cccc2Cl)noc1-c1cnn(-c2cccc(C#N)c2)c1C(F)(F)F [IB-32, ethyl 3-(2-chloro-6-fluorophenyl)-5-(1-(3-cyanophenyl)-5-(trifluoromethyl)-1H-pyrazol-4-yl)isoxazole-4-carboxylate] | – | – | < 10 | < 10 | – | 10 to 100 |
| Fc1cccc(-n2ncc(-c3onc(-c4c(F)cccc4Cl)c3-c3ccccc3)c2C(F)(F)F)c1 [Example 14, 3-(2-chloro-6-fluorophenyl)-5-(1-(3-fluorophenyl)-5-(trifluoromethyl)-1H-pyrazol-4-yl)-4-phenylisoxazole] | 100 to 1000 | 10 to 100 | – | – | 100 to 1000 | – |
| COC(=O)c1c(-c2c(F)cccc2Cl)noc1-c1cnn(C2CCS(=O)(=O)C2)c1C(F)(F)F (stereo not drawn) [Example I-103, methyl 3-(2-chloro-6-fluorophenyl)-5-(1-(3-hydrazinyltetrahy-drothiophene 1,1-dioxide)-5-(trifluoromethyl)-1H-pyrazol-4-yl)isoxazole-4-carboxylate] | – | – | 100 to 1000 | 100 to 1000 | – | 100 to 1000 |
| Fc1cccc(-n2ncc(-c3onc(-c4c(F)cccc4Cl)c3-c3nnc(C(F)(F)F)o3)c2C(F)(F)F)c1 [Example 6, 2-(3-(2-chloro-6-fluorophenyl)-5-(1-(3-fluorophenyl)-5-(trifluoromethyl)-1H-pyrazol-4-yl)isoxazol-4-yl)-5-(trifluoromethyl)-1,3,4-oxadiazole] | 10 to 100 | 10 to 100 | – | – | 10 to 100 | – |
| CC(=O)Nc1cccc(-n2ncc(-c3onc(-c4c(F)cccc4Cl)c3-c3nnc(C)s3)c2C(F)(F)F)c1 [Example B-12, N-(3-(4-(3-(2-chloro-6-fluorophenyl)-4-(5-methyl-1,3,4-thiadiazol-2-yl)isoxazol-5-yl)-5-(trifluoromethyl)-1H-pyrazol-1-yl)phenyl)acetamide] | 1000 to 10000 | 100 to 1000 | – | – | 1000 to 10000 | – |
| Cc1nnc(-c2c(-c3c(F)cccc3Cl)noc2-c2cnn(-c3cccc(S(N)(=O)=O)c3)c2C(F)(F)F)s1 [Example B-23, 3-(4-(3-(2-chloro-6-fluorophenyl)-4-(5-methyl-1,3,4-thiadiazol-2-yl)isoxazol-5-yl)-5-(trifluoromethyl)-1H-pyrazol-1-yl)benzenesulfonamide] | 1000 to 10000 | 1000 to 10000 | – | – | 1000 to 10000 | – |

The next lines start with results.

| IC50 (IL-17FF; [2]) [nM] | IC50 (IFN-γ; [3]) [nM] | IC50 (IL-17FF; [5]) [nM] | IC50 (IFN-γ; [6]) [nM] | Structure (SMILES) | IC50 [1, 4] [nM] | IC50 [1, 7] [nM] |
| --- | --- | --- | --- | --- | --- | --- |
| – | – | 1000 to 10000 | 100 to 1000 | CNC(=S)c1c(-c2c(F)cccc2Cl)noc1-c1cnn(-c2ccc(F)cc2)c1C(F)(F)F [Example I-76, 3-(2-chloro-6-fluorophenyl)-5-(1-(4-fluorophenyl)-5-(trifluoromethyl)-1H-pyrazol-4-yl)-N-methylisoxazole-4-carbothioamide] | – | 1000 to 10000 |
| – | – | 100 to 1000 | 100 to 1000 | COC(=O)Nc1c(-c2c(F)cccc2Cl)noc1-c1cnn(-c2cccc(F)c2)c1C(F)(F)F [Example I-138, methyl 3-(2-chloro-6-fluorophenyl)-5-[1-(3-fluorophenyl)-5-(trifluoromethyl)-1H-pyrazol-4-yl]isoxazol-4-ylcarbamate] | – | 100 to 1000 |
| – | – | 10 to 100 | < 10 | CCOC(=O)c1c(-c2ccncc2F)noc1-c1cnn(-c2cccc(NC(C)=O)c2)c1C(F)(F)F [IB-6, ethyl 5-(1-(3-acetamidophenyl)-5-(trifluoromethyl)-1H-pyrazol-4-yl)-3-(3-fluoropyridin-4-yl)isoxazole-4-carboxylate] | – | 100 to 1000 |
| 100 to 1000 | 100 to 1000 | – | – | Cc1nnc(-c2c(-c3c(F)cccc3Cl)noc2-c2cnn(-c3ccccc3Cl)c2C(F)(F)F)s1 [Example B-20, 3-(2-chloro-6-fluorophenyl)-5-(1-(2-chlorophenyl)-5-(trifluoromethyl)-1H-pyrazol-4-yl)-4-(5-methyl-1,3,4-thiadiazol-2-yl)isoxazole] | 100 to 1000 | – |
| 1000 to 10000 | 100 to 1000 | – | – | Fc1cccc(Cl)c1-c1noc(-c2cnn(-c3cccnc3)c2C(F)(F)F)c1-c1cnco1 [Example B-32, 3-(2-chloro-6-fluorophenyl)-4-(oxazol-5-yl)-5-(1-(pyridin-3-yl)-5-(trifluoromethyl)-1H-pyrazol-4-yl)isoxazole] | 1000 to 10000 | – |
| 100 to 1000 | 100 to 1000 | – | – | Cc1nnc(-c2c(-c3c(F)cccc3Cl)noc2-c2cnn(-c3ccncc3)c2C(F)(F)F)o1 [Example B-19, 2-(3-(2-chloro-6-fluorophenyl)-5-(1-(pyridin-4-yl)-5-(trifluoromethyl)-1H-pyrazol-4-yl)isoxazol-4-yl)-5-methyl-1,3,4-oxadiazole] | 100 to 1000 | – |
| – | – | < 10 | < 10 | COC(=O)c1c(-c2c(Cl)cccc2Cl)noc1-c1cnn(-c2cccc(F)c2)c1C(F)(F)F [Example I-109, methyl 3-(2,6-dichlorophenyl)-5-(1-(3-fluorophenyl)-5-(trifluoromethyl)-1H-pyrazol-4-yl)isoxazole-4-carboxylate] | – | < 10 |
| – | – | 100 to 1000 | 100 to 1000 | CCOC(=O)c1c(-c2ccc(Cl)cc2Cl)noc1-c1cnn(-c2cccc(Cl)c2)c1C(F)(F)F [IB-46, ethyl 5-(1-(3-chlorophenyl)-5-(trifluoromethyl)-1H-pyrazol-4-yl)-3-(2,4-dichlorophenyl)-isoxazole-4-carboxylate] | – | 100 to 1000 |
| 1000 to 10000 | 1000 to 10000 | – | – | Fc1cccc(Cl)c1-c1noc(-c2cnn(-c3cccc(Cl)c3)c2C(F)(F)F)c1-c1nnn[nH]1 [Example 3, 3-(2-chloro-6-fluorophenyl)-5-(1-(3-chlorophenyl)-5-(trifluoromethyl)-1H-pyrazol-4-yl)-4-(1H-tetrazol-5-yl)isoxazole] | 1000 to 10000 | – |
